Biological target: T1, intestinal α-glucosidase
T1 construct: called intestinal; pNPG assay after Kim et al; 5KZW (docking only) is not the assayed enzyme
Assay: p-nitrophenol release from pNPG, absorbance […] nm
Format: biochemical
Details: p-nitrophenyl α-D-glucopyranoside (250 μL of 20 mM), sodium phosphate pH 6.9, 37°C, 10 min preincubation

`O=C(O)/C=C/c1ccc(O)c(O)c1` [caffeic acid] was tested, and the IC50 was 1050 ± 250 µM.

Source: paper PMC8279857, “In Vitro and In Silico Evaluation for the Inhibitory Action of O. basilicum Methanol Extract on α-Glucosidase and α-Amylase” (Evidence-based Complementary and Alternative Medicine : eCAM, 2021)
